Measurements reported in patent publication US10092633B2, “Newly identified peptides for use in the induction of oral tolerance in young mammals” (NESTEC S.A., priority 2013, dated 2018).

Experiments:
HLA-DR = test: peptides bound to HLA-DR on cells cultured with NAN-HA/BEBA-HA formula, isolated by immunoprecipitation and identified by LC-MS/MS; format: binding, human; conditions: U937 and Thp1 cells incubated 24 hours with BEBA-HA; immunoprecipitation with clone L243; nano-LC-MSMS
Procedure: In a set of experiments detailed in Example 1, the present inventors identified the peptide sequences of BLG responsible for the induction of oral tolerance towards milk proteins, in particular BLG. In a first step, using a cellular based assay, partially hydrolyzed infant formula NAN HA™ (otherwise known as BEBE HA™) from Nestlé, was incubated with human cells expressing the Major Histocompatibility Complex (MHC) class II receptor, HLA-DR. As the first step in the induction of oral tolerance, the HLA receptor presents peptide sequences to the T cells, thereby inducing tolerance. Thus, development of tolerance is largely dependent on the recognition of the peptide sequence by the MHC.
Thus, in the current invention, the human cells expressing HLA-DR were cultured in the presence of NAN-HA™ formula (which had been verified to be non-toxic for the cells), the peptides that bound to the HLA receptor were isolated by immunoprecipitation, and then identified by mass spectrometry and amino acid sequencing.
The Thp1 and U937 cells were incubated in 20 mL RPMI-1640 medium with L-Glutamine (Sigma) supplemented with 10% heat-inactivated FCS (Amimed, Bioconcept) and Penicillin/Streptomycin (Sigma) at a concentration of 1×10^6 cells/mL in a T175 cm^2 (Falcon) with respectively 1 ug/mL and 100 ug/mL of BEBA-HA (Nestlé, Lot# L02680742AP) for a 24 hours period at 37° C. in presence of 5% CO2. Cells were spun down and harvested to perform immunoprecipitation of MHC-peptide complexes.
Briefly, for each condition tested (control without BEBA-HA, sample with BEBA-HA for both cell lines), 2×10^7 cells were resuspended in ice cold TBS and washed three times. […]
Before MS analysis, HLA-DR peptides were desalted using either reversed-phase C18 (The Nest group, USA) or mixed-mode OASIS (Waters, USA) desalting columns as described in the manufacturer's manual. After desalting, peptides were analyzed by nano-LC-MSMS using an in-house Magic C18 column (150×0.075 mm) for peptide separation (2-35% Acetontril/0.1% formaic acid in 30 minutes) coupled to an Orbitrap XL instrument. […]

[1] = system: oral tolerance to β-lactoglobulin; conditions: previously identified as part of a longer peptide sequence in the earlier filing; cited from earlier work
[2] = system: BLG-specific IgE antibodies; test: experimental mouse model of sensitization to BLG: gavage, then i.p. sensitization, BLG-specific IgE in serum; format: in vivo, BALB/cJ mice; conditions: gavage days 1, 2, 3, 8, 9 and 10 (0.22 μmole); i.p. native BLG on alum day 14; serum days 30-33; FIG. 1
Procedure: Mice were fed either native BLG or either synthetic peptide (84-106) or (25-107) by gavage on day 1, 2, 3, 8, 9 and 10. They were then sensitized by i.p. administration with native BLG on day 14. Serum IgE levels were measured between day 30 and 33.
Specific pathogen-free (SPF) BALB/cJ mice (3 to 4 weeks-old females, Centre d'Elevage René Janvier, Le Genest Saint-Isle, France) were housed in filtered cages under normal SPF husbandry conditions (autoclaved bedding and sterile water) and were acclimatized for two weeks before experiments. They were maintained on a diet deprived of animal protein, and in which BLG was not detected using specific sandwich immunoassays. All animal experiments were performed according to European Community rules of animal care, and with authorization 91-368 of the French Veterinary Services. […]
Groups of 6 or 7 mice were administered either 4 mg of native bovine BLG, or equivalent quantity (i.e. 0.22 μmole) of isolated synthetic BLG peptides. […]
The efficacy of mice sensitization was assessed by quantitative measurements of BLG-specific IgE antibodies on individual serum samples collected from the mice retro-orbital venous plexus under light anaesthesia (Isoflurane, Baxter) between days 30-33. Non-specific binding was determined using individual sera from 10 naive mice, and was deduced from the absorbance values measured with immune sera. […]

Row | Substance | recognition by and binding to HLA-DR (identified among HLA-DR bound peptides) (HLA-DR) | induction of oral tolerance [1] | BLG-specific serum IgE level / tolerance induction compared to control (PBS) [2]
1 | EVDDEALEK [peptide c, previously known tolerogenic BLG peptide, position 143-151, positive control] | identified by this method | inducers of oral tolerance | –
2 | IDALNENK [peptide a, previously known tolerogenic BLG peptide, position 100-107, positive control] | identified by this method | inducers of oral tolerance | –
3 | VLDTDY (SAEPEQ; UniProt P02754 126-131, looked up, fragment) [peptide b, previously known tolerogenic BLG peptide, position 110-115, positive control] | identified by this method | inducers of oral tolerance | –
4 | peptide (84-106): synthetic peptide corresponding to the bovine BLG sequence numbers 84-106 (MW 2731 Da) (IDALNENKVLVLDTDYKKYLLFC; UniProt P02754 100-122, looked up, fragment) | – | – | tendency towards a lower level of IgE
